Measured values taken from patent publication US9932332B2, “FXR (NR1H4) modulating compounds” (Gilead Sciences, Inc., priority 2016, dated 2018).

Target: FXR ligand binding domain (Homo sapiens (Human), UniProt Q96RI1)
Experiment: Mammalian one hybrid (M1H) Gal4 reporter gene assay in HEK293 cells
Type: cell-based
Settings: Gal4-FXR-LBD luciferase reporter, 16 h incubation
Experimental: Determination of a ligand mediated Gal4 promoter driven transactivation to quantify ligand binding mediated activation of FXR was performed as follows: The cDNA part encoding the FXR ligand binding domain was cloned into vector pCMV-BD (Stratagene) as a fusion to the yeast GAL4 DNA binding domain under the control of the CMV promoter. The amino acid boundaries of the ligand binding domain were amino acids 187-472 of Database entry NM_005123 (RefSeq). The plasmid pFR-Luc (Stratagene) was used as the reporter plasmid, containing a synthetic promoter with five tandem repeats of the yeast GAL4 binding sites, driving the expression of the Photinus pyralis (American firefly) luciferase gene as the reporter gene. In order to improve experimental accuracy the plasmid pRL-CMV (Promega) was cotransfected. pRL-CMV contains the constitutive CMV promoter, controlling the expression of the Renilla reniformis luciferase. […] Cells were incubated for additional 16 h before firefly and renilla luciferase activities were measured sequentially in the same cell extract using a Dual-Light-Luciferase-Assay system (Dyer et al., Anal. Biochem. 2000, 282, 158-161). […]

Chain of FXR ligand binding domain (Q96RI1 other isoform, or with tags, fused parts or gaps): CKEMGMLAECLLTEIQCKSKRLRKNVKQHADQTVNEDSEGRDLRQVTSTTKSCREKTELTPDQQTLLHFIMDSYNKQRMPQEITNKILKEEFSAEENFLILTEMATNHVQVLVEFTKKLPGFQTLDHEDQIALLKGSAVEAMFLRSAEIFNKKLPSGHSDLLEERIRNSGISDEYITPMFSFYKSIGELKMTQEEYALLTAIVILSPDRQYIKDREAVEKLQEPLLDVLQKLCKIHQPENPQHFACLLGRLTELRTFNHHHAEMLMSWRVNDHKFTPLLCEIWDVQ

EC50 [nM] | Structure (SMILES)
216 | O=C(O)c1cc(F)c2nc(C3(O)C4COCC3CC(OCc3c(-c5c(Cl)cccc5Cl)noc3C3CC3)C4)sc2c1 [Example 1, 2-((1R,5S,9S)-7-((5-Cyclopropyl-3-(2,6-dichlorophenyl)isoxazol-4-yl)methoxy)-9-hydroxy-3-oxabicyclo[3.3.1]nonan-9-yl)-4-fluorobenzo[d]thiazole-6-carboxylic acid]
175 | O=C(O)c1ccc2nc(C3(O)C4COCC3CC(OCc3c(-c5c(Cl)cccc5Cl)noc3C3CC3)C4)sc2c1 [Example 2, 2-((1R,5S,9S)-7-((5-Cyclopropyl-3-(2,6-dichlorophenyl)isoxazol-4-yl)methoxy)-9-hydroxy-3-oxabicyclo[3.3.1]nonan-9-yl)benzo[d]thiazole-6-carboxylic acid]
